Reference: patent US12030884B2, “Pyrazoloquinoline KRAS inhibitors” (INCYTE CORPORATION, priority 2021, dated 2024)

Assays:
[1] = molecular target: KRAS G12C (Homo sapiens, UniProt P01116, G12C); experiment: GDP-GTP exchange assay (KRAS_G12C exchange assay); assay type: biochemical; conditions: bodipy-loaded KRAS G12C, SOS1, GppNHp; 2 hours pre-incubation with inhibitor; read-out: G12C_exchange
Description: The inhibitor potency of the exemplified compounds was determined in a fluorescence based guanine nucleotide exchange assay, which measures the exchange of bodipy-GDP (fluorescently labeled GDP) for GppNHp (Non-hydrolyzable GTP analog) to generate the active state of KRAS in the presence of SOS1 (guanine nucleotide exchange factor). Inhibitors were serially diluted in DMSO and a volume of 0.1 μL was transferred to the wells of a black low volume 384-well plate. 5 μL/well volume of bodipy-loaded KRAS G12C diluted to 5 nM in assay buffer (25 mM Hepes pH 7.5, 50 mM NaCl, 10 mM MgCl2 and 0.01% Brij-35) was added to the plate and pre-incubated with inhibitor for 2 hours at ambient temperature. Appropriate controls (enzyme with no inhibitor or with a G12C inhibitor (AMG-510)) were included on the plate. The exchange was initiated by the addition of a 5 μL/well volume containing 1 mM GppNHp and 300 nM SOS1 in assay buffer. The 10 μL/well reaction concentration of the bodipy-loaded KRAS G12C, GppNHp, and SOS1 were 2.5 nM, 500 uM, and 150 nM, respectively. The reaction plates were incubated at ambient temperature for 2 hours, a time estimated for complete GDP-GTP exchange in the absence of inhibitor. For the KRAS G12D and G12V mutants, similar guanine nucleotide exchange assays were used with 2.5 nM as final concentration for the bodipy loaded KRAS proteins and with 4 hours and 3 hours incubation after adding GppNHp-SOS1 mixture for G12D and G12V respectively. A cyclic peptide described to selectively bind G12D mutant (Sakamoto et al., BBRC 484.3 (2017), 605-611) or internal compounds with confirmed binding were used as positive controls in the assay plates. Fluorescence intensities were measured on a PheraStar plate reader instrument (BMG Labtech) with excitation at 485 nm and emission at 520 nm.
Either GraphPad prism or Genedata Screener SmartFit was used to analyze the data. The IC50 values were derived by fitting the data to a four parameter logistic equation producing a sigmoidal dose-response curve with a variable Hill coefficient.

[2] = Human whole blood stability; assay type: in vitro ADME; conditions: percent remaining, 1 μM, 37° C.
Description: The whole blood stability of the exemplified compounds was determined by LC-MS/MS. The 96-Well Flexi-Tier™ Block (Analytical Sales & Services, Inc, Flanders, NJ) was used for the incubation plate containing 1.0 mL glass vials with 0.5 mL of blood per vial (pooled gender, human whole blood sourced from BIOIVT, Hicksville, NY or similar). Blood was pre-warmed in water bath to 37° C. for 30 minutes. 96-deep well analysis plate was prepared with the addition of 100 μL ultrapure water/well. 50 μL chilled ultrapure water/well was added to 96-deep well sample collection plate and covered with a sealing mat. 1 μL of 0.5 mM compound working solution (DMSO:water) was added to the blood in incubation plate to reach final concentrations of 1 μM, mixed by pipetting thoroughly and 50 μL was transferred 50 into the T=0 wells of the sample collection plate. Blood was allowed to sit in the water for 2 minutes and then 400 μL stop solution/well was added (acetonitrile containing an internal standard). The incubation plate was placed in the Incu-Shaker CO2 Mini incubator (Benchmark Scientific, Sayreville, NJ) at 37° C. with shaking at 150 rpm. At 1, 2 and 4-hr, the blood samples were mixed thoroughly by pipetting and 50 μL is transferred into the corresponding wells of the sample collection plate. Blood was allowed to sit in the water for 2 minutes and then 400 μL of stop solution/well was added. The collection plate was sealed and vortexed at 1700 rpm for 3 minutes (VX-2500 Multi-Tube Vortexer, VWR International, Radnor, PA), and samples were then centrifuged in the collection plate at 3500 rpm for 10 minutes (Allegra X-14R Centrifuge Beckman Coulter, Indianapolis, IN). 100 μL of supernatant/well was transferred from the sample collection plate into the corresponding wells of the analysis plate. The final plate was vortexed at 1700 rpm for 1 minute and analyze samples by LC-MS/MS. The peak area ratio of the 1, 2, and 4 hr samples relative to T=0 was used to determine the percent remaining. The natural log of the percent remaining versus time was used determine a slope to calculate the compounds half-life in blood (t1/2=0.693/slope).

[3] = system: pERK1/2 in MIA PaCa-2 cells (KRAS G12C); experiment: Whole blood pERK1/2 HTRF assay (KRAS_G12C WB pERK assay); assay type: cell-based; conditions: Homo sapiens, compound in whole blood, 4 hours, read-out: G12C_WB_pERK
Description: MIA PaCa-2 cells (KRAS G12C; ATCC® CRL-1420), HPAF-II (KRAS G12D; ATCC® CRL-1997) and YAPC (KRAS G12V; DSMZ ACC382) are maintained in RPMI 1640 with 10% FBS (Gibco/Life Technologies). For MIA PaCa-2 assay, cells are seeded into 96 well tissue culture plates (Corning #3596) at 25000 cells per well in 100 uL media and cultured for 2 days at 37° C., 5% CO2 before the assay. For HPAF-II and YAPC assay, cells are seeded in 96 well tissue culture plates at 50000 cells per well in 100 uL media and cultured for 1 day before the assay. Whole Blood are added to the 1 uL dots of compounds (prepared in DMSO) in 96 well plates and mixed gently by pipetting up and down so that the concentration of the compound in blood is 1× of desired concentration, in 0.5% DMSO. The media is aspirated from the cells and 50 uL per well of whole blood with test compound is added and incubated for 4 hours for MIA PaCa and YAPC assay; or 2 hours for HPAF-II assay, respectively at 37° C., 5% CO2. After dumping the blood, the plates are gently washed twice by adding PBS to the side of the wells and dumping the PBS from the plate onto a paper towel, tapping the plate to drain well. Fifty ul/well of 1×lysis buffer #1 (Cisbio) with blocking reagent (Cisbio) and Benzonase nuclease (Sigma Cat #E1014-5KU, 1: 10000 final concentration) is then added and incubated at room temperature for 30 minutes with shaking (250 rpm). Following lysis, 16 uL of lysate is transferred into 384-well Greiner small volume white plate using an Assist Plus (Integra Biosciences, NH). Four uL of 1:1 mixture of anti Phospho-ERK 1/2 d2 and anti Phospho-ERK 1/2 Cryptate (Cisbio) is added to the wells using the Assist Plus and incubated at room temperature overnight in the dark. Plates are read on the Pherastar plate reader at 665 nm and 620 nm wavelengths. Data are analyzed in Genedata Screener using SmartFit for IC50 values.

[4] = system: pERK in KRAS G12C cells (MIA PaCa-2, NCI-H358); experiment: Cellular pERK HTRF assay (KRAS_G12C pERK assay); assay type: cell-based; conditions: 4 hours incubation, read-out: G12C_pERK
Description: MIA PaCa-2 (KRAS G12C; ATCC® CRL-1420), NCI-H358 (KRAS G12C; ATCC® CRL-5807), A427 (KRAS G12D; ATCC® HTB53), HPAFII (KRAS G12D; ATCC® CRL-1997), YAPC (KRAS G12V; DSMZ ACC382), SW480 (KRAS G12V; ATCC® CRL-228) and NCI-H838 (KRAS WT; ATCC® CRL-5844) cells are purchased from ATCC and maintained in RPMI 1640 media supplemented with 10% FBS (Gibco/Life Technologies). The cells are plated at 5000 cells per well (8 uL) into Greiner 384-well low volume, flat-bottom, and tissue culture treated white plates and incubated overnight at […], 5% CO2. The next morning, test compound stock solutions are diluted in media at 3× the final concentration and 4 uL are added to the cells, with a final concentration of 0.1% of DMSO. The cells are incubated with the test compounds for 4 hours (G12C and G12V) or 2 hrs (G12D) at 37° C., 5% CO2. Four uL of 4×lysis buffer with blocking reagent (Cisbio) are added to each well and plates are rotated gently (300 rpm) for 30 minutes at room temperature. Four uL per well of Cisbio anti Phospho-ERK 1/2 d2 is mixed with anti Phospho-ERK 1/2 Cryptate (1:1), and added to each well, incubated overnight in the dark at room temperature. Plates are read on the Pherastar plate reader at 665 nm and 620 nm wavelengths. Data are analyzed in Genedata Screener using SmartFit for IC50 values.

Sequence of KRAS G12C (P01116 1-188 isoform P01116-2 G12C): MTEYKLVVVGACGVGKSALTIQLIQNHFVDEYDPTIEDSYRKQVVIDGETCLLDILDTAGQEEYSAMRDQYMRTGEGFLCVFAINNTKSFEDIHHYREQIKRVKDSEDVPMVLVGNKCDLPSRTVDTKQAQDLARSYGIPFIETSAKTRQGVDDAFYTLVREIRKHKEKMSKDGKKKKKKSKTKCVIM

Structure (SMILES): CC#CC(=O)N1CC[C@H](n2ncc3c(O[C@@H](C)[C@@H]4CCCN4C)nc4c(F)c(-c5nccc6cccc(C#N)c56)c(Cl)cc4c32)C[C@H]1CC#N (single isomer, unassigned) [Example 1a]
- IC50 [1]: ≤ 100 nM
- Human whole blood stability at 4 hr [2]: ††† (WBS >90%)
- IC50 [3]: ≤ 100 nM
- IC50 [4]: ≤ 100 nM

Structure (SMILES): CC#CC(=O)N1CC[C@H](n2ncc3c(O[C@@H](C)[C@@H]4CCCN4C)nc4c(F)c(-c5nccc6cccc(C#N)c56)c(Cl)cc4c32)C[C@H]1CC#N (single isomer, unassigned) [Example 1b]
- IC50 [1]: ≤ 100 nM

Structure (SMILES): C=C(F)C(=O)N1CC[C@H](n2ncc3c(O[C@@H](C)[C@@H]4CCCN4C)nc4c(F)c(-c5nccc6cccc(C#N)c56)c(Cl)cc4c32)C[C@H]1CC#N (single isomer, unassigned) [Example 3a]
- IC50 [1]: ≤ 100 nM
- Human whole blood stability at 4 hr [2]: ††† (WBS >90%)
- IC50 [3]: ≤ 100 nM
- IC50 [4]: ≤ 100 nM

Structure (SMILES): C=C(F)C(=O)N1CC[C@H](n2ncc3c(O[C@@H](C)[C@@H]4CCCN4C)nc4c(F)c(-c5nccc6cccc(C#N)c56)c(Cl)cc4c32)C[C@H]1CC#N (single isomer, unassigned) [Example 3b]
- IC50 [1]: 100 to 1000 nM

Structure (SMILES): C=C(F)C(=O)N1CC[C@H](n2ncc3c(N4CC(N(C)CC)C4)nc4c(F)c(-c5c(C)c(C)cc6[nH]ncc56)c(Cl)cc4c32)C[C@H]1CC#N (single isomer, unassigned) [Example 4a]
- IC50 [1]: ≤ 100 nM
- Human whole blood stability at 4 hr [2]: †† (WBS >70% but ≤90%)
- IC50 [3]: ≤ 100 nM
- IC50 [4]: ≤ 100 nM

Structure (SMILES): C=C(F)C(=O)N1CC[C@H](n2ncc3c(N4CC(N(C)CC)C4)nc4c(F)c(-c5c(C)c(C)cc6[nH]ncc56)c(Cl)cc4c32)C[C@H]1CC#N (single isomer, unassigned) [Example 4b]
- IC50 [1]: 1000 to 5000 nM

Structure (SMILES): C=C(F)C(=O)N1CC[C@H](n2ncc3c(O[C@@H](C)[C@@H]4CCCN4C)nc4c(F)c(-c5cccc6cccc(C#N)c56)c(Cl)cc4c32)C[C@H]1CC#N (single isomer, unassigned) [Example 5a]
- IC50 [1]: 100 to 1000 nM

Structure (SMILES): C=C(F)C(=O)N1CC[C@H](n2ncc3c(O[C@@H](C)[C@@H]4CCCN4C)nc4c(F)c(-c5cccc6cccc(C#N)c56)c(Cl)cc4c32)C[C@H]1CC#N (single isomer, unassigned) [Example 5b]
- IC50 [1]: ≤ 100 nM
- IC50 [3]: ≤ 100 nM
- IC50 [4]: ≤ 100 nM

Structure (SMILES): CC#CC(=O)N1CC[C@H](n2ncc3c(O[C@@H](C)[C@@H]4CCCN4C)nc4c(F)c(-c5cccc6cccc(C#N)c56)c(C)cc4c32)C[C@H]1CC#N (single isomer, unassigned) [Example 7]
- IC50 [1]: ≤ 100 nM
- Human whole blood stability at 4 hr [2]: †† (WBS >70% but ≤90%)
- IC50 [3]: ≤ 100 nM
- IC50 [4]: ≤ 100 nM

Structure (SMILES): COC/C=C/C(=O)N1CC[C@H](n2ncc3c(O[C@@H](C)[C@@H]4CCCN4C)nc4c(F)c(-c5nccc6cccc(C#N)c56)c(Cl)cc4c32)C[C@H]1CC#N [Example 2a, 1-(8-chloro-1-((2S,4S)-2-(cyanomethyl)-1-((E)-4-methoxybut-2-enoyl)piperidin-4-yl)-6-fluoro-4-((S)-1-((S)-1-methylpyrrolidin-2-yl)ethoxy)-1H-pyrazolo[4,3-c]quinolin-7-yl)isoquinoline-8-carbonitrile]
- IC50 [1]: ≤ 100 nM
- Human whole blood stability at 4 hr [2]: ††† (WBS >90%)
- IC50 [3]: ≤ 100 nM
- IC50 [4]: ≤ 100 nM

Structure (SMILES): COC/C=C/C(=O)N1CC[C@H](n2ncc3c(O[C@@H](C)[C@@H]4CCCN4C)nc4c(F)c(-c5cccc6cccc(C#N)c56)c(Cl)cc4c32)C[C@H]1CC#N [Example 6a, 8-(8-chloro-1-((2S,4S)-2-(cyanomethyl)-1-((E)-4-methoxybut-2-enoyl)piperidin-4-yl)-6-fluoro-4-((S)-1-((S)-1-methylpyrrolidin-2-yl)ethoxy)-1H-pyrazolo[4,3-c]quinolin-7-yl)-1-naphthonitrile]
- IC50 [1]: ≤ 100 nM

Structure (SMILES): COC/C=C/C(=O)N1CC[C@H](n2ncc3c(O[C@@H](C)[C@@H]4CCCN4C)nc4c(F)c(-c5cccc6cccc(C#N)c56)c(Cl)cc4c32)C[C@H]1CC#N [Example 6b, 8-(8-chloro-1-((2S,4S)-2-(cyanomethyl)-1-((E)-4-methoxybut-2-enoyl)piperidin-4-yl)-6-fluoro-4-((S)-1-((S)-1-methylpyrrolidin-2-yl)ethoxy)-1H-pyrazolo[4,3-c]quinolin-7-yl)-1-naphthonitrile]
- Human whole blood stability at 4 hr [2]: ††† (WBS >90%)
- IC50 [3]: ≤ 100 nM
- IC50 [4]: ≤ 100 nM
